Source: patent US9493444B2 (Merck Patent GmbH, priority 2012, dated 2016)

Each compound was assayed on Wnt pathway (TCF-dependent transcription in HEK293 luciferase reporter cell line with ER-DSH construct) (assay: Cellular assay for Wnt pathway activity (luciferase reporter)). Settings: Homo sapiens; Wnt pathway inhibition, HEK293 luciferase reporter cells (ER-DSH, TCF promoter), 24 hours incubation, estrogen-induced.
Type: cell-based
Summary of the method: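 Luminescent luciferase read-out after 24 h compound exposure at 1 nM to 30 μM, with TCF-driven transcription switched on by estrogen addition. IC50 values come from curve fits of data normalized against the vehicle-only control.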

First: CC(=O)N(C)CCN(C)c1cncc(Oc2ccc(CO)cc2)n1 [Compound 181, N-(2-{[6-(4-Hydroxymethyl-phenoxy)-pyrazin-2-yl]-methyl-amino}-ethyl)-N-methyl-acetamide]
Second: CC(=O)N(C)CCN(C)c1cncc(Oc2ccc(-c3ccnc(O)c3)cc2)n1 [Compound 204, N-[2-({6-[4-(2-Hydroxy-pyridin-4-yl)-phenoxy]-pyrazin-2-yl}-methyl-amino)-ethyl]-N-methyl-acetamide]
The IC50 of the first is lower: < 200 nM for the first, 200 to 1000 nM for the second.

`CC(=O)Nc1ccc(-c2ccc(Oc3cncc(N(C)CCN(C)C(C)=O)n3)cc2)cn1` [Compound 182, N-{5-[4-(6-{[2-(Acetyl-methyl-amino)-ethyl]-methyl-amino}-pyrazin-2-yloxy)-phenyl]-pyridin-2-yl}-acetamide] and `CC(=O)N(C)CCN(C)c1cncc(Oc2ccc(-c3ccc(C)nc3)cc2)n1` [Compound 183, N-Methyl-N-[2-(methyl-{6-[4-(6-methyl-pyridin-3-yl)-phenoxy]-pyrazin-2-yl}-amino)-ethyl]-acetamide] cannot be ordered by IC50: < 200 nM for the first, < 200 nM for the second.

Compared with `COc1ccc(-c2ccc(Oc3cncc(N(C)CCN(C)C(C)=O)n3)cc2)cn1` [Compound 184, N-[2-({6-[4-(6-Methoxy-pyridin-3-yl)-phenoxy]-pyrazin-2-yl}-methyl-amino)-ethyl]-N-methyl-acetamide], `COc1cc(-c2ccc(Oc3cncc(N(C)CCN(C)C(C)=O)n3)cc2)ccn1` [Compound 194, N-[2-({6-[4-(2-Methoxy-pyridin-4-yl)-phenoxy]-pyrazin-2-yl}-methyl-amino)-ethyl]-N-methyl-acetamide] is higher in IC50: < 200 nM for the first, 200 to 1000 nM for the second.

`CC(=O)N(C)CCN(C)c1cncc(Oc2ccc(-c3cnc(N)cn3)cc2)n1` [Compound 185, N-[2-({6-[4-(5-Amino-pyrazin-2-yl)-phenoxy]-pyrazin-2-yl}-methyl-amino)-ethyl]-N-methyl-acetamide] and `CC(=O)N(C)CCN(C)c1cncc(Oc2ccc(-c3ccnc(N)n3)cc2)n1` [Compound 202, N-[2-({6-[4-(2-Amino-pyrimidin-4-yl)-phenoxy]-pyrazin-2-yl}-methyl-amino)-ethyl]-N-methyl-acetamide] cannot be ordered by IC50: < 200 nM for the first, < 200 nM for the second.

First: CC(=O)N(C)CCN(C)c1cncc(Oc2ccc(-c3cnc4sc(=O)[nH]c4c3)cc2)n1 [Compound 186, N-Methyl-N-[2-(methyl-{6-[4-(2-oxo-1,2-dihydro-thiazolo[5,4-b]pyridin-6-yl)-phenoxy]-pyrazin-2-yl}-amino)-ethyl]-acetamide]
Second: CC(=O)N(C)CCN(C)c1cncc(Oc2ccc(-c3cncc(C)c3)cc2)n1 [Compound 212, N-Methyl-N-[2-(methyl-{6-[4-(5-methyl-pyridin-3-yl)-phenoxy]-pyrazin-2-yl}-amino)-ethyl]-acetamide]
The IC50 of the first is lower: < 200 nM for the first, 200 to 1000 nM for the second. The first is the more potent here.

`CCOC(=O)c1ncoc1-c1ccc(Oc2cncc(N(C)CCN(C)C(C)=O)n2)cc1` [Compound 187, 5-[4-(6-{[2-(Acetyl-methyl-amino)-ethyl]-methyl-amino}-pyrazin-2-yloxy)-phenyl]-oxazole-4-carboxylic acid ethyl ester] and `CC(=O)N(C)CCN(C)c1cncc(Oc2ccc(-c3cc(C(N)=O)ccn3)cc2)n1` [Compound 192, 2-[4-(6-{[2-(Acetyl-methyl-amino)-ethyl]-methyl-amino}-pyrazin-2-yloxy)-phenyl]-isonico-tinamide] fall in the same range of IC50: 200 to 1000 nM for the first, 200 to 1000 nM for the second.

`CC(=O)N(C)CCOc1cncc(Oc2ccc(F)cc2)n1` [Compound 188, N-{2-[6-(4-Fluoro-phenoxy)-pyrazin-2-yloxy]-ethyl}-N-methyl-acetamide] and `CNC(=O)CCCN(C)c1cncc(Oc2ccc(F)cc2)n1` [Compound 189, 4-{[6-(4-Fluoro-phenoxy)-pyrazin-2-yl]-methyl-amino}-N-methyl-butyramide] fall in the same range of IC50: 1000 to 10000 nM for the first, 1000 to 10000 nM for the second.

`CC(=O)N(C)CCN(C)c1cncc(Oc2ccc(-c3cc4cc[nH]c4cn3)cc2)n1` [Compound 190, N-Methyl-N-[2-(methyl-{6-[4-(1H-pyrrolo[2,3-c]pyridin-5-yl)-phenoxy]-pyrazin-2-yl}-amino)-ethyl]-acetamide] and `CC(=O)N(C)CCN(C)c1cncc(Oc2ccc(-c3cc(C#N)ccn3)cc2)n1` [Compound 199, N-[2-({6-[4-(4-Cyano-pyridin-2-yl)-phenoxy]-pyrazin-2-yl}-methyl-amino)-ethyl]-N-methyl-acetamide] cannot be ordered by IC50: < 200 nM for the first, < 200 nM for the second.

`CC(=O)N(C)CCN(C)c1cncc(Oc2ccc(-c3ncnc4[nH]ccc34)cc2)n1` [Compound 191, N-Methyl-N-[2-(methyl-{6-[4-(7H-pyrrolo[2,3-d]pyrimidin-4-yl)-phenoxy]-pyrazin-2-yl}-amino)-ethyl]-acetamide] and `CC(=O)N(C)CCN(C)c1cncc(Oc2ccc(-c3cccc(N)n3)cc2)n1` [Compound 205, N-[2-({6-[4-(6-Amino-pyridin-2-yl)-phenoxy]-pyrazin-2-yl}-methyl-amino)-ethyl]-N-methyl-acetamide] cannot be ordered by IC50: < 200 nM for the first, < 200 nM for the second.

`Cc1ccc(-c2ccc(Oc3cncc(N(C)CCN4CCCCC4=O)n3)cc2)nc1` [Compound 193, 1-[2-(Methyl-{6-[4-(5-methyl-pyridin-2-yl)-phenoxy]-pyrazin-2-yl}-amino)-ethyl]-piperidin-2-one] and `Cc1ccc(-c2ccc(Oc3cncc(NCCN4CCCCC4=O)n3)cc2)nc1` [Compound 197, 1-(2-{6-[4-(5-Methyl-pyridin-2-yl)-phenoxy]-pyrazin-2-ylamino}-ethyl)-piperidin-2-one] cannot be ordered by IC50: < 200 nM for the first, < 200 nM for the second.

Compared with `CC(=O)N(C)CCN(C)c1cncc(Oc2ccc(-c3ccnc4ccccc34)cc2)n1` [Compound 195, N-Methyl-N-(2-{methyl-[6-(4-quinolin-4-yl-phenoxy)-pyrazin-2-yl]-amino}-ethyl)-acetamide], `CC(=O)N(C)CCN(C)c1cncc(Oc2ccc(-c3cnc4ccccc4c3)cc2)n1` [Compound 207, N-Methyl-N-(2-{methyl-[6-(4-quinolin-3-yl-phenoxy)-pyrazin-2-yl]-amino}-ethyl)-acetamide] is higher in IC50: < 200 nM for the first, 200 to 1000 nM for the second.

First: Cc1ccc(-c2ccc(Oc3cncc(NCCN4CCCC4=O)n3)cc2)nc1 [Compound 196, 1-(2-{6-[4-(5-Methyl-pyridin-2-yl)-phenoxy]-pyrazin-2-ylamino}-ethyl)-pyrrolidin-2-one]
Second: CC(=O)N(C)CCCc1cncc(Oc2ccc(-c3ccc(C)cn3)cc2)n1 [Compound 215, N-Methyl-N-(3-{6-[4-(5-methyl-pyridin-2-yl)-phenoxy]-pyrazin-2-yl}-propyl)-acetamide]
The IC50 of the first is lower: < 200 nM for the first, 200 to 1000 nM for the second.

`CC(=O)N(C)CCN(C)c1cncc(Oc2ccc(-c3ccc([N+](=O)[O-])cn3)cc2)n1` [Compound 198, N-Methyl-N-[2-(methyl-{6-[4-(5-nitro-pyridin-2-yl)-phenoxy]-pyrazin-2-yl}-amino)-ethyl]-acetamide] and `CC(=O)N(C)CCN(C)c1cncc(Oc2ccc(-c3cccc(C#N)n3)cc2)n1` [Compound 200, N-[2-({6-[4-(6-Cyano-pyridin-2-yl)-phenoxy]-pyrazin-2-yl}-methyl-amino)-ethyl]-N-methyl-acetamide] cannot be ordered by IC50: < 200 nM for the first, < 200 nM for the second.

`CC(=O)N(C)CCN(C)c1cncc(Oc2ccc(-c3ccnc(C#N)c3)cc2)n1` [Compound 201, N-[2-({6-[4-(2-Cyano-pyridin-4-yl)-phenoxy]-pyrazin-2-yl}-methyl-amino)-ethyl]-N-methyl-acetamide] and `CC(=O)N(C)CCN(C)c1cncc(Oc2ccc(-c3ccnc(F)c3)cc2)n1` [Compound 210, N-[2-({6-[4-(2-Fluoro-pyridin-4-yl)-phenoxy]-pyrazin-2-yl}-methyl-amino)-ethyl]-N-methyl-acetamide] cannot be ordered by IC50: < 200 nM for the first, < 200 nM for the second.

`CC(=O)N(C)CCN(C)c1cncc(Oc2ccc(-c3ccncc3)cc2)n1` [Compound 203, N-Methyl-N-(2-{methyl-[6-(4-pyridin-4-yl-phenoxy)-pyrazin-2-yl]-amino}-ethyl)-acetamide] and `CC(=O)N(C)CCN(C)c1cncc(Oc2ccc(-c3cncnc3)cc2)n1` [Compound 209, N-Methyl-N-(2-{methyl-[6-(4-pyrimidin-5-yl-phenoxy)-pyrazin-2-yl]-amino}-ethyl)-acetamide] cannot be ordered by IC50: < 200 nM for the first, < 200 nM for the second.

`CC(=O)N(C)CCN(C)c1cncc(Oc2ccc(-c3cccc(S(C)(=O)=O)n3)cc2)n1` [Compound 206, N-[2-({6-[4-(6-Methane-sulfonyl-pyridin-2-yl)-phenoxy]-pyrazin-2-yl}-methyl-amino)-ethyl]-N-methyl-acetamide] and `CC(=O)N(C)CCN(C)c1cncc(Oc2ccc(-c3ccc(C#N)nc3)cc2)n1` [Compound 211, N-[2-({6-[4-(6-Cyano-pyridin-3-yl)-phenoxy]-pyrazin-2-yl}-methyl-amino)-ethyl]-N-methyl-acetamide] cannot be ordered by IC50: < 200 nM for the first, < 200 nM for the second.

Compared with `CC(=O)N(C)CCN(C)c1cncc(O[C@H]2C[C@H]3CC[C@@H]2C3)n1` [Compound 208, N-(2-{[6-((1R,2S,4S)-Bicyclo[2.2.1]hept-2-yloxy)-pyrazin-2-yl]-methyl-amino}-ethyl)-N-methyl-acetamide], `CC(=O)N(C)CCCc1cncc(Oc2ccc(-c3ccncc3C#N)cc2)n1` [Compound 213, N-(3-{6-[4-(3-Cyano-pyridin-4-yl)-phenoxy]-pyrazin-2-yl}-propyl)-N-methyl-acetamide] is lower in IC50: 1000 to 10000 nM for the first, 200 to 1000 nM for the second.

`CC(=O)N(C)CCCc1cncc(Oc2ccc(-c3cnc(N)cn3)cc2)n1` [Compound 214, N-(3-{6-[4-(5-Amino-pyrazin-2-yl)-phenoxy]-pyrazin-2-yl}-propyl)-N-methyl-acetamide] and `CC(=O)N(C)CCCc1cncc(Oc2ccc(-c3ccc(N4CCOCC4)nc3)cc2)n1` [Compound 216, N-Methyl-N-(3-{6-[4-(6-morpholin-4-yl-pyridin-3-yl)-phenoxy]-pyrazin-2-yl}-propyl)-acetamide] fall in the same range of IC50: 200 to 1000 nM for the first, 200 to 1000 nM for the second.

In the case of `CC(=O)N(C)CCCc1cncc(Oc2ccc(-c3cccc(N4CCN(C)CC4)n3)cc2)n1` [Compound 217, N-Methyl-N-[3-(6-{4-[6-(4-methyl-piperazin-1-yl)-pyridin-2-yl]-phenoxy}-pyrazin-2-yl)-propyl]-acetamide], the IC50 is reported as 200 to 1000 nM.
